According to patent publication US10093713B2, “GIP-GLP-1 dual agonist compounds and methods” (priority 2013, dated 2018):
Where two headings read alike, the source gives them in different places. *1 amine or outer side, *2 acyl side, *3 side chain or, on linkers, in order; H or OH if unused. Where a SMILES comes first, the peptide text is derived from it. Side-chain parts run from the residue outwards. [ ]: non-standard residue; d: D form. The star is where a group is joined. C18 diacid = O=C(O)CCCCCCCCCCCCCCCCC(=O)*; γGlu = O=C(O)[C@H](CCC(=O)[*:2])N[*:1]; AEEA = NCCOCCOCC(=O)O; Aib = CC(C)(N)C(=O)O

Experiments:
human GIP R = target: T1, human GIP R (Homo sapiens, UniProt P48546); test: Human GIP receptor (GIP R) activity assay, cAMP induction (AlphaScreen) in HEK293 cells; format: cell-based; details: read-out: hGIP-R cAMP EC50 average value
T1 construct: expressed in transfected cells
T1 sequence (P48546 22-466): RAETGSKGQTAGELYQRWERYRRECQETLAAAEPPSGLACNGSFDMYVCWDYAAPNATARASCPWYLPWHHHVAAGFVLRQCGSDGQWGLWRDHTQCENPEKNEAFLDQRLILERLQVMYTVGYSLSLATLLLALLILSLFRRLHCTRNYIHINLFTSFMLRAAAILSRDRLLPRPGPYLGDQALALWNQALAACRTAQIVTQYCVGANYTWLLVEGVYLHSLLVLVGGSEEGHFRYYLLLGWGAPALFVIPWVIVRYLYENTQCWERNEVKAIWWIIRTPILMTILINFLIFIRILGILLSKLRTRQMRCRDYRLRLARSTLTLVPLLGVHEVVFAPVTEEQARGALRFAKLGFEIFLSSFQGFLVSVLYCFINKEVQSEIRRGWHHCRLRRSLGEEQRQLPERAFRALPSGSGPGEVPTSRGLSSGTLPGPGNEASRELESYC
Description: (§1) Human GIP Receptor (GIP R) and GLP-1 Receptor (GLP-1 R) Activity Assay
(§2) In vitro effects of peptide conjugates of the invention were assessed by measuring the induction of cAMP following stimulation of the respective receptor by GIP, GLP1 or analogues of these, as outlined in the invention, using the AlphaSceen® cAMP kit from Perkin-Elmer according to instructions. Briefly, HEK293 cells expressing the human GIP R or GLP-1 R (stable cell lines generated through transfection of the cDNA for human GIP R or GLP-1 and selection of stable clones) were seeded at 30,000 cells/well in 96-well microtiter plates coated with 0.01% poly-L-lysine, and grown for 1 day in culture in 200 μl growth medium (DMEM, 10% FCS, Penicillin (100 IU/ml), Streptomycin (100 μg/ml)). On the day of analysis, growth medium was removed and the cells were washed once with […] Tyrode's buffer (Tyrode's Salts (9.6 g/l), 10 mM HEPES, pH 7.4). […] The Assay buffer was removed and cells are lysed in 80 μl Lysis buffer (0.1% w/v BSA, 5 mM HEPES, 0.3% v/v Tween-20) per well. From each well 10 μl lysed cells was transferred to a 384-well plate and mixed with 15 μl bead-mix (1 Unit/15 μl anti-cAMP Acceptor Beads, 1 Unit/15 μl Donor Beads, and 1 Unit/15 μl Biotinylated cAMP in Assay Buffer). The plates were mixed and incubated in the dark for an hour at room temperature before measuring using an Envision™ plate reader (Perkin-Elmer).
(§3) The resulting cAMP curves were plotted as absolute cAMP concentrations (nM) over log (test compound concentration) and analyzed using the curve fitting program XLfit.
(§4) Parameters calculated to describe both the potency as well as the agonistic activity of each test compound on the receptors were:
(§5) EC50, a concentration resulting in a half-maximal elevation of cAMP levels, reflecting the potency of the test compound.

human GLP-1 R = target: T2, human GLP-1 R (Homo sapiens, UniProt P43220); test: Human GLP-1 receptor (GLP-1 R) activity assay, cAMP induction (AlphaScreen) in HEK293 cells; format: cell-based
T2 construct: expressed in transfected cells
T2 sequence (P43220 24-463): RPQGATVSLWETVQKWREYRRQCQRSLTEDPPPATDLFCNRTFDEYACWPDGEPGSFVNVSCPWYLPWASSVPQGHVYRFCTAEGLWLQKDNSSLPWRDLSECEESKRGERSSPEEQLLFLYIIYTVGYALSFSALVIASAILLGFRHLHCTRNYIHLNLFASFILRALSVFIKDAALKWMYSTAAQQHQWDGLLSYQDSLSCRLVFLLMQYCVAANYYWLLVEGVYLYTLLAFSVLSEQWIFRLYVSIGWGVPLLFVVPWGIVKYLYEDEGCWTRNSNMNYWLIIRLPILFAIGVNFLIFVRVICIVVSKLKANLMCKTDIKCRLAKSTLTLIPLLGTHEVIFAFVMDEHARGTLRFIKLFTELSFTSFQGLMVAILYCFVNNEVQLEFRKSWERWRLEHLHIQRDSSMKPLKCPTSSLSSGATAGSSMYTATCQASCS
Description: as §1, §2, §3, §4, §5

[1] = Table 2a, secondary assay study
[2] = Table 2a, secondary assay study, read-out: hGLP1-R cAMP EC50 average value
[3] = Table 2, HEK293 cells expressing human GIP R
[4] = Table 2, HEK293 cells expressing human GLP-1 R, read-out: hGLP1-R cAMP EC50 average value

Row | SMILES | EC50 (human GIP R; [1]) [pM] | EC50 (human GLP-1 R; [2]) [pM] | EC50 (human GIP R; [3]) [pM] | EC50 (human GLP-1 R; [4]) [pM] | EC50 (human GLP-1 R; Table 3, most comprehensive data, read-out: hGLP-1-R cAMP EC50 average value) [pM] | EC50 (human GIP R; Table 3, most comprehensive data) [pM]
1 | CC[C@H](C)[C@H](NC(=O)[C@H](CO)NC(=O)[C@H](Cc1ccc(O)cc1)NC(=O)[C@H](CC(=O)O)NC(=O)[C@H](CO)NC(=O)[C@@H](NC(=O)[C@H](Cc1ccccc1)NC(=O)[C@@H](NC(=O)CNC(=O)[C@H](CCC(=O)O)NC(=O)C(C)(C)NC(=O)[C@@H](N)Cc1ccc(O)cc1)[C@@H](C)O)[C@@H](C)O)C(=O)N[C@@H](C)C(=O)N[C@@H](CC(C)C)C(=O)N[C@@H](CC(=O)O)C(=O)N[C@@H](CCCCN)C(=O)N[C@@H](CCCCNC(=O)COCCOCCNC(=O)COCCOCCNC(=O)CC[C@H](NC(=O)CCCCCCCCCCCCCCCCCCC(=O)O)C(=O)O)C(=O)N[C@@H](C)C(=O)N[C@@H](CCC(N)=O)C(=O)N[C@@H](CCCNC(=N)N)C(=O)N[C@@H](C)C(=O)N[C@@H](Cc1ccccc1)C(=O)N[C@H](C(=O)N[C@@H](CC(N)=O)C(=O)N[C@@H](Cc1c[nH]c2ccccc12)C(=O)N[C@@H](CC(C)C)C(=O)N[C@H](C(=O)N[C@@H](C)C(=O)NC(C)(C)C(=O)N[C@@H](CCCCN)C(=O)N1CCC[C@H]1C(=O)N[C@@H](CO)C(=O)N[C@@H](CO)C(=O)NCC(=O)N[C@@H](C)C(=O)N1CCC[C@H]1C(=O)N1CCC[C@H]1C(=O)N1CCC[C@H]1C(=O)N[C@@H](CO)C(N)=O)C(C)C)C(C)C [Compound 16] | 8 | 9 | – | – | – | –
2 | CC[C@H](C)[C@H](NC(=O)[C@H](CO)NC(=O)[C@H](CC(C)C)NC(=O)[C@H](CC(=O)O)NC(=O)[C@H](CO)NC(=O)[C@@H](NC(=O)[C@H](Cc1ccccc1)NC(=O)[C@@H](NC(=O)CNC(=O)[C@H](CCC(=O)O)NC(=O)C(C)(C)NC(=O)[C@@H](N)Cc1ccc(O)cc1)[C@@H](C)O)[C@@H](C)O)C(=O)N[C@@H](C)C(=O)N[C@@H](CC(C)C)C(=O)N[C@@H](CCC(=O)O)C(=O)N[C@@H](CCCCN)C(=O)N[C@@H](CCCCNC(=O)COCCOCCNC(=O)COCCOCCNC(=O)CC[C@H](NC(=O)CCCCCCCCCCCCCCCCC(=O)O)C(=O)O)C(=O)N[C@@H](C)C(=O)N[C@@H](CCC(N)=O)C(=O)N[C@@H](CCCNC(=N)N)C(=O)N[C@@H](C)C(=O)N[C@@H](Cc1ccccc1)C(=O)N[C@H](C(=O)N[C@@H](CCC(=O)O)C(=O)N[C@@H](Cc1c[nH]c2ccccc12)C(=O)N[C@@H](CC(C)C)C(=O)N[C@@H](CC(C)C)C(=O)N[C@@H](C)C(=O)N[C@@H](CCC(N)=O)C(=O)N[C@@H](CCCCN)C(N)=O)C(C)C [Compound 17] (H-Y[Aib]EGTFTSDLSIALEKK([AEEA-AEEA-γGlu-C18 diacid])AQRAFVEWLLAQK-NH2) | – | – | 11 | 6.2 | 6 | –
3 | CC[C@H](C)[C@H](NC(=O)[C@H](CO)NC(=O)[C@H](Cc1ccc(O)cc1)NC(=O)[C@H](CC(=O)O)NC(=O)[C@H](CO)NC(=O)[C@@H](NC(=O)[C@H](Cc1ccccc1)NC(=O)[C@@H](NC(=O)CNC(=O)[C@H](CCC(=O)O)NC(=O)C(C)(C)NC(=O)[C@@H](N)Cc1ccc(O)cc1)[C@@H](C)O)[C@@H](C)O)C(=O)N[C@@H](C)C(=O)N[C@@H](CC(C)C)C(=O)N[C@@H](CCC(=O)O)C(=O)N[C@@H](CCCCN)C(=O)N[C@@H](CCCCNC(=O)COCCOCCNC(=O)COCCOCCNC(=O)CC[C@H](NC(=O)CCCCCCCCCCCCCCCCC(=O)O)C(=O)O)C(=O)N[C@@H](C)C(=O)N[C@@H](CCC(N)=O)C(=O)N[C@@H](CCCNC(=N)N)C(=O)N[C@@H](C)C(=O)N[C@@H](Cc1ccccc1)C(=O)N[C@H](C(=O)N[C@@H](CCC(=O)O)C(=O)N[C@@H](Cc1c[nH]c2ccccc12)C(=O)N[C@@H](CC(C)C)C(=O)N[C@@H](CC(C)C)C(=O)N[C@@H](C)C(=O)N[C@@H](CCC(N)=O)C(=O)N[C@@H](CCCCN)C(N)=O)C(C)C [Compound 17] (H-Y[Aib]EGTFTSDYSIALEKK([AEEA-AEEA-γGlu-C18 diacid])AQRAFVEWLLAQK-NH2) | 8 | 15 | – | – | – | –
4 | CC[C@H](C)[C@H](NC(=O)[C@H](CO)NC(=O)[C@H](CC(C)C)NC(=O)[C@H](CC(=O)O)NC(=O)[C@H](CO)NC(=O)[C@@H](NC(=O)[C@H](Cc1ccccc1)NC(=O)[C@@H](NC(=O)CNC(=O)[C@H](CCC(=O)O)NC(=O)C(C)(C)NC(=O)[C@@H](N)Cc1ccc(O)cc1)[C@@H](C)O)[C@@H](C)O)C(=O)N[C@@H](C)C(=O)N[C@@H](CC(C)C)C(=O)N[C@@H](CCC(=O)O)C(=O)N[C@@H](CCCCN)C(=O)N[C@@H](CCCCNC(=O)COCCOCCNC(=O)COCCOCCNC(=O)CC[C@H](NC(=O)CCCCCCCCCCCCCCCCC(=O)O)C(=O)O)C(=O)N[C@@H](C)C(=O)N[C@@H](CCC(N)=O)C(=O)N[C@@H](CCCNC(=N)N)C(=O)N[C@@H](C)C(=O)N[C@@H](Cc1ccccc1)C(=O)N[C@H](C(=O)N[C@@H](CCC(=O)O)C(=O)N[C@@H](Cc1c[nH]c2ccccc12)C(=O)N[C@@H](CC(C)C)C(=O)N[C@@H](CC(C)C)C(=O)N[C@@H](C)C(=O)N[C@@H](CCC(N)=O)C(=O)N[C@@H](CCCCN)C(N)=O)C(C)C [Compound 18] (H-Y[Aib]EGTFTSDLSIALEKK([AEEA-AEEA-γGlu-C18 diacid])AQRAFVEWLLAQK-NH2) | 11 | 6 | – | – | – | –
5 | CC[C@H](C)[C@H](NC(=O)[C@H](CO)NC(=O)[C@H](Cc1ccc(O)cc1)NC(=O)[C@H](CC(=O)O)NC(=O)[C@H](CO)NC(=O)[C@@H](NC(=O)[C@H](Cc1ccccc1)NC(=O)[C@@H](NC(=O)CNC(=O)[C@H](CCC(=O)O)NC(=O)C(C)(C)NC(=O)[C@@H](N)Cc1ccc(O)cc1)[C@@H](C)O)[C@@H](C)O)C(=O)N[C@@H](Cc1ccc(O)cc1)C(=O)N[C@@H](CC(C)C)C(=O)N[C@@H](CCC(=O)O)C(=O)N[C@@H](CCCCN)C(=O)N[C@@H](CCCCNC(=O)COCCOCCNC(=O)COCCOCCNC(=O)CC[C@H](NC(=O)CCCCCCCCCCCCCCCCC(=O)O)C(=O)O)C(=O)N[C@@H](C)C(=O)N[C@@H](CCC(N)=O)C(=O)N[C@@H](CCCNC(=N)N)C(=O)N[C@@H](C)C(=O)N[C@@H](Cc1ccccc1)C(=O)N[C@H](C(=O)N[C@@H](CCC(=O)O)C(=O)N[C@@H](Cc1c[nH]c2ccccc12)C(=O)N[C@@H](CC(C)C)C(=O)N[C@@H](CC(C)C)C(=O)N[C@@H](CCCNC(=N)N)C(=O)N[C@@H](C)C(N)=O)C(C)C [Compound 18] (H-Y[Aib]EGTFTSDYSIYLEKK([AEEA-AEEA-γGlu-C18 diacid])AQRAFVEWLLRA-NH2) | – | – | 14 | 22 | – | –
6 | CC[C@H](C)[C@H](NC(=O)[C@H](CO)NC(=O)[C@H](Cc1ccc(O)cc1)NC(=O)[C@H](CC(=O)O)NC(=O)[C@H](CO)NC(=O)[C@@H](NC(=O)[C@H](Cc1ccccc1)NC(=O)[C@@H](NC(=O)CNC(=O)[C@H](CCC(=O)O)NC(=O)C(C)(C)NC(=O)[C@@H](N)Cc1ccc(O)cc1)[C@@H](C)O)[C@@H](C)O)C(=O)N[C@@H](C)C(=O)N[C@@H](CC(C)C)C(=O)N[C@@H](CC(=O)O)C(=O)N[C@@H](CCCCN)C(=O)N[C@@H](CCCCNC(=O)COCCOCCNC(=O)COCCOCCNC(=O)CC[C@H](NC(=O)CCCCCCCCCCCCCCCCC(=O)O)C(=O)O)C(=O)N[C@@H](C)C(=O)N[C@@H](CCC(N)=O)C(=O)N[C@@H](CCCNC(=N)N)C(=O)N[C@@H](C)C(=O)N[C@@H](Cc1ccccc1)C(=O)N[C@H](C(=O)N[C@@H](CC(N)=O)C(=O)N[C@@H](Cc1c[nH]c2ccccc12)C(=O)N[C@@H](CC(C)C)C(=O)N[C@H](C(=O)N[C@@H](C)C(=O)NC(C)(C)C(=O)N[C@@H](CCCCN)C(N)=O)C(C)C)C(C)C [Compound 19] (H-Y[Aib]EGTFTSDYSIALDKK([AEEA-AEEA-γGlu-C18 diacid])AQRAFVNWLVA[Aib]K-NH2) | – | – | 7.3 | 14 | – | 7
